Laboratory results reported in US20240315237A1, “METHODS FOR SINGLE CELL ANALYSIS OF GLUCOSE INTERNALIZATION” (ABBOTT DIABETES CARE INC., priority 2023, published 2024).
Several values for one entry are separate records, joined by “and”; a condition that tells them apart may be missing. Equal entries are not always repeated. Entries after “also recorded” stand apart in the source; their conditions may differ.

Legend:
Assay type in all cases: cell-based
GLUT1 [1] = biological target: T1, GLUT1 (Homo sapiens, UniProt P11166); test: glucose competition study with unlabeled D-glucose (flow cytometry); settings: 20 μM tracer; for mean intensity maintained, % of the mean intensity of the control sample: 100 mM unlabeled D-glucose (5000× tracer), 60 min, 37° C., human RBCs
T1 construct: Adult human RBCs exclusively express the glucose transporter 1 (GLUT1) encoded by the SLC2A1 gene; endogenous in cells; host or cells: human erythrocytes (RBCs) isolated from blood
T1 sequence (P11166 1-492): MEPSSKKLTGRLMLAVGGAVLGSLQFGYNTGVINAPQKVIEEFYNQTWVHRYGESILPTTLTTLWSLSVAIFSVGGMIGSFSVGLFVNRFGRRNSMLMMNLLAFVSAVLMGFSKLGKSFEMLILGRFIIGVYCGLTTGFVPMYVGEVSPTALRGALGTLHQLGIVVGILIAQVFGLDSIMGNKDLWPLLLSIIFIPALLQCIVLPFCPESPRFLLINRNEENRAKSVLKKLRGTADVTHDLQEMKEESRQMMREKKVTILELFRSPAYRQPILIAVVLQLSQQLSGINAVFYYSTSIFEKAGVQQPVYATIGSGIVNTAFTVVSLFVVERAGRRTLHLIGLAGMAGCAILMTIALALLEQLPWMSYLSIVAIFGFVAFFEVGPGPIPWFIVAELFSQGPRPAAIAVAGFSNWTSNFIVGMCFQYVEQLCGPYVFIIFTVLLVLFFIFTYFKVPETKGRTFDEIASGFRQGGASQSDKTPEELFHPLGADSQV
Protocol: (§1) To test the tracer specificity, a competition experiment was first performed on the flow cytometer under identical settings as were used in the membrane integrity experiments above. Aliquots of solutions of RBCs containing KCl solution and 20 μM of a given glucose tracer were incubated for 60 minutes at 37° C. shaker at 400 RPM containing a selected concentration of unlabeled D-glucose (i.e., 0.00, 0.01, 0.50, 1.00, 5.00, 25.00, 50.00 or 100.00 mM). After incubation, cells were washed one time in 125 KCl solution containing the selected concentration of D-glucose and promptly measured on the flow cytometer using the conditions described above. Next, GLUT1-specific transport was further tested by preparing washed RBC solutions as described above and then incubating the RBC solutions with one of the GLUT1 inhibitors on a 37° C. shaker at 400 RPM for one hour of incubation. […] Samples were then spun down, and supernatant was removed and fresh inhibitor/KCl solution was added and inverted. Glucose tracers were then added at working concentrations of 20 μM and incubated for 30 minutes on a 37° C. shaker at 400 RPM. After 30 minutes, cells were quickly spun down again using the protocol described in herein and supernatant was removed and replaced with fresh inhibitor/KCl solution before immediately being placed on the flow cytometer. Each sample was run on the flow cytometer using identical settings described above.

GLUT1 [2] = biological target: T1, GLUT1; test: small molecule GLUT1 inhibition study of tracer uptake (flow cytometry)
Protocol: as §1, with “Each sample was run on the flow cytometer using identical settings described above.” left out

human erythrocytes = test: single cell 2-NBDG uptake in anchored RBCs (microfluidic perfusion, confocal microscopy)
Protocol: Sample preparation. Human whole blood from an individual donor was drawn into sodium heparin (NaHep) and shipped cold. Samples were received directly from BioIVT LLC and placed into 4° C. refrigeration until prepared for experimentation. Samples removed from refrigeration for experimentation purposes were first inverted for three minutes and then 200 μL were drawn from the collection tubes and placed into a fresh 1.5 mL centrifuge tube containing 1 mL of 125 mM KCl solution. Samples were gently inverted 5-10× and then placed in a 4° C. centrifuge and spun using a modified RBC isolation protocol aimed at reducing clotting of whole blood and deformation of RBCs (Hanson et al., American Journal of Physiology Heart and Circulatory Physiology, 2008. 295(2): p. H786-H793). Centrifugation-based separation of RBCs was performed at 2000 RPM (490×g) for 5 minutes. After centrifugation, supernatant was removed along with buffy coat (white blood cells, etc.) using a pipette and a fresh 1 mL of KCl solution was then added. This process was repeated 3× to isolate RBCs and diminish intracellular glucose.
Samples were then vortexed gently and placed on a 37° C. shaker at 400 RPM for one hour for incubation. Due to the high expression of glycophorin A+B in erythrocytes, it was a simple membrane target for antibody anchoring of cells to the microfluidic imaging surface using the biotin binding Neutravidin™ system.
Microfluidic Perfusion. An ONIX microfluidic perfusion system from CellAsic (Millipore Sigma) was used for flow-based experiments. The system comprises a perfusion pump system, which connects to a PC for multidimensional control of flow rates (converted from applied kPa, i.e., 27.6 kPA=20 μL/hr) and duration. The plates used for experiments herein are model Y04C. This plate system has a #1.5 glass bottom for imaging and contains four separate channels which have an observation region where fluid switching can occur homogenously. Plates were removed from vacuum packaging the day of experimentation and storage PBS was removed using a vacuum system. Each well was then filled with 400 μL of KCl solution and placed on the perfusion system. KCl solution was flowed through each channel and well (except for the waste well #7) at 20 μL/hr for 20 minutes to flush out any storage PBS. Next, one of the wells (#1 for each channel) was filled with 100 μL 0.1 mg/mL Pierce™ biotinylated-bovine serum albumin (B-BSA, Cat #29130, Thermo Scientific) in 125 mM KCl solution and this was then flowed through for 15 minutes total, then allowed to incubate for 15 minutes at room temperature. After the B-BSA was deposited on the glass surface of the channels, a 0.1 mg/mL solution of Neutravidin (Cat #31000, Thermo Scientific) in KCl solution was flowed for 15 minutes at room temperature to build a surface anchoring system for red blood cells.
For uptake measurements, cells incubated with biotinylated-α-glycophorin A+B antibodies were diluted 1:1 in KCl solution within well #8 and perfused using 20 μL/hr in combination with well #5 containing KCl solution only at 20 μL/hr for 10 seconds. Flowed cells were then allowed to incubate with the cell anchoring system described above for three minutes. […] Immediately after this time point, well #2 was stopped, and KCl solution only from well #5 was perfused at 20 μL/hr to wash away tracer (“washout”).
For uptake measurements, the 488 nm laser was configured for excitation to a power level of 0.07% of total laser voltage (i.e., 3.5 μW before the objective) with a pixel dwell time of 0.24 μs. For detection, the detector bandwidth was set to admit wavelengths 520 nm to 560 nm with a master gain of 500 V and digital gain set to 1×. The field of view was 1944 pixels×1944 pixels (or 192.8 μm×192.8 μm) which led to a total frame time of 989.11 ms for a single acquisition. With these settings and using the 40× magnification, the pixel size was ˜0.1 μm×˜0.1 μm.

[3] = 5 mM 2-NBDG, all cells, height corrected, FIG. 16B
[4] = normalized to the all donor mean, N=45, FIG. 18

Compound	mean intensity maintained, % of the mean intensity of the control sample (GLUT1 [1]) [%]	competition with unlabeled D-glucose among three tracers (GLUT1 [1]; 0.00-100.00 mM D-glucose, FIG. 9C)	inhibition of tracer uptake by GLUT1 inhibitors, compared with other tracers (GLUT1 [2]; Phloretin, Cytochalasin B, WZB117, STF-31, BAY-876, 20 μM tracer, FIG. 1B)	specificity for the GLUT1 transporter (GLUT1 [2]; human RBCs, inhibitor panel and glucose competition experiments)	time to saturation point of intracellular 2-NBDG intensity (human erythrocytes; 5 mM 2-NBDG, 20 μL/hr, FIG. 11B)	mean intracellular glucose fraction, typical patient with higher fraction (human erythrocytes; 5 mM 2-NBDG, 1802 cells, cell heights ≥2.1 μm, mean±1 SD, FIG. 14B)	mean intracellular glucose fraction, typical patient with lower fraction (human erythrocytes; 5 mM 2-NBDG, 2343 cells, cell heights ≥2.1 μm, mean±1 SD, FIG. 14A)	mean intracellular percentage for this patient blood sample (human erythrocytes; 5 mM 2-NBDG, FIG. 11C) [%]	intracellular glucose percentage, Black patients (human erythrocytes; 5 mM 2-NBDG, FIG. 16A, n=20, mean±1 SD)	intracellular glucose percentage, Caucasian/Hispanic patients (human erythrocytes; 5 mM 2-NBDG, FIG. 16A, n=25, mean±1 SD)	mean (+/−SD) uptake normalized to overall mean, Black ancestry (human erythrocytes; 5 mM 2-NBDG, FIG. 17) [%+/−39%]	mean (+/−SD) uptake normalized to overall mean, White ancestry (human erythrocytes; 5 mM 2-NBDG, FIG. 17) [%+/−36%]	corrected intracellular glucose percentage (HCIG), Black patients (human erythrocytes; [3])	corrected intracellular glucose percentage (HCIG), Caucasian/Hispanic patients (human erythrocytes; [3])	stability of saturating intracellular level (plateau) (human erythrocytes; extended duration measurements, FIGS. 13A-13B)	mean normalized intracellular glucose, Black sub-group (human erythrocytes; [4])	mean normalized intracellular glucose, Hispanic/Caucasian sub-group (human erythrocytes; [4])
6-deoxy-2-[(7-nitro-2,1,3-benzoxadiazol-4-yl)amino]-D-glucose [6-NBDG]	13.8																
O=C[C@H](Nc1ccc([N+](=O)[O-])c2nonc12)[C@@H](O)[C@H](O)[C@H](O)CO [2-NBDG, 2-deoxy-2-[(7-nitro-2,1,3-benzoxadiazol-4-yl)amino]-D-glucose]	1.4	highest competition	most inhibition; also recorded: consistently the most inhibited	highest specificity; also recorded: GLUT1 specific	within several seconds	6.7% and 6.7%±2.3%	4.6% and 4.6%±1.6%	4.9	0.057±0.018	0.044±0.018	118	86	0.060±0.020	0.044±0.018	stable for several hours	1.18	0.86
D-Glucose-Silicon rhodamine [D-glucose-SIR]	41.9																
